For assay [1], the target named is T1, Lysine-specific demethylase 4A (Homo sapiens, UniProt O75164).
T1 sequence (O75164 whole entry): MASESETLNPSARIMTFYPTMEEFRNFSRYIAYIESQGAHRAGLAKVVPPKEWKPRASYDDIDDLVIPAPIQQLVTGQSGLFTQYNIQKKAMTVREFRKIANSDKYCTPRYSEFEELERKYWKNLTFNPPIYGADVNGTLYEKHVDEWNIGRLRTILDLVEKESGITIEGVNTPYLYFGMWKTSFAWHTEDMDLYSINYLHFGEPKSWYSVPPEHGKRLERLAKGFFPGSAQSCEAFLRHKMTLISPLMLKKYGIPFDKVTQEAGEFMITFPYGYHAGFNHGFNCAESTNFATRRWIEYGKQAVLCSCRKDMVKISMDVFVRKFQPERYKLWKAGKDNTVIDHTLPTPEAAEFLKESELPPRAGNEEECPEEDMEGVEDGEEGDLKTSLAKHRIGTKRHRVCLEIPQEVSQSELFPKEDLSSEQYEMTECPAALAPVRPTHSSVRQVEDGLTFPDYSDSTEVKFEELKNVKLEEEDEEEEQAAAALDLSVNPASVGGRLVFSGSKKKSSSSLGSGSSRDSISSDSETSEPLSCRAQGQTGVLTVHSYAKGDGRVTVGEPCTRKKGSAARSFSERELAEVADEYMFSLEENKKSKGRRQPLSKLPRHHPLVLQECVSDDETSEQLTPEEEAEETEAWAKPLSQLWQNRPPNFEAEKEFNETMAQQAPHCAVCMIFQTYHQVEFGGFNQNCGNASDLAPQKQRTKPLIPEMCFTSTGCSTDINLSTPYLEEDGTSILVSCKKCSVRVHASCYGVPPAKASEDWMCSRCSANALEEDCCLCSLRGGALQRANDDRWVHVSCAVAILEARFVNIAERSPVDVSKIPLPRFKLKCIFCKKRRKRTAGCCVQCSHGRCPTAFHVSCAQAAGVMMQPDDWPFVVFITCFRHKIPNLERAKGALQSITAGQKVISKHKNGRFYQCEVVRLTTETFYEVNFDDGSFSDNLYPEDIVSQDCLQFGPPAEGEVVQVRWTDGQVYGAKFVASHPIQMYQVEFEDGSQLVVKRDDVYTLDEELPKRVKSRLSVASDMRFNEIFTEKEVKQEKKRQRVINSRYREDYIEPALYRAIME
Nature of the assay: Inhibition of full-length FLAG-tagged KDM4A (unknown origin) expressed in human HeLa cells assessed as increase in H3K9me3 level after 24 hrs by DAPI staining based immunofuorescence assay. In kind it is cell-based.

For assay [2], the target named is T2, Lysine-specific demethylase 3A (Homo sapiens, UniProt Q9Y4C1).
T2 sequence (Q9Y4C1 whole entry): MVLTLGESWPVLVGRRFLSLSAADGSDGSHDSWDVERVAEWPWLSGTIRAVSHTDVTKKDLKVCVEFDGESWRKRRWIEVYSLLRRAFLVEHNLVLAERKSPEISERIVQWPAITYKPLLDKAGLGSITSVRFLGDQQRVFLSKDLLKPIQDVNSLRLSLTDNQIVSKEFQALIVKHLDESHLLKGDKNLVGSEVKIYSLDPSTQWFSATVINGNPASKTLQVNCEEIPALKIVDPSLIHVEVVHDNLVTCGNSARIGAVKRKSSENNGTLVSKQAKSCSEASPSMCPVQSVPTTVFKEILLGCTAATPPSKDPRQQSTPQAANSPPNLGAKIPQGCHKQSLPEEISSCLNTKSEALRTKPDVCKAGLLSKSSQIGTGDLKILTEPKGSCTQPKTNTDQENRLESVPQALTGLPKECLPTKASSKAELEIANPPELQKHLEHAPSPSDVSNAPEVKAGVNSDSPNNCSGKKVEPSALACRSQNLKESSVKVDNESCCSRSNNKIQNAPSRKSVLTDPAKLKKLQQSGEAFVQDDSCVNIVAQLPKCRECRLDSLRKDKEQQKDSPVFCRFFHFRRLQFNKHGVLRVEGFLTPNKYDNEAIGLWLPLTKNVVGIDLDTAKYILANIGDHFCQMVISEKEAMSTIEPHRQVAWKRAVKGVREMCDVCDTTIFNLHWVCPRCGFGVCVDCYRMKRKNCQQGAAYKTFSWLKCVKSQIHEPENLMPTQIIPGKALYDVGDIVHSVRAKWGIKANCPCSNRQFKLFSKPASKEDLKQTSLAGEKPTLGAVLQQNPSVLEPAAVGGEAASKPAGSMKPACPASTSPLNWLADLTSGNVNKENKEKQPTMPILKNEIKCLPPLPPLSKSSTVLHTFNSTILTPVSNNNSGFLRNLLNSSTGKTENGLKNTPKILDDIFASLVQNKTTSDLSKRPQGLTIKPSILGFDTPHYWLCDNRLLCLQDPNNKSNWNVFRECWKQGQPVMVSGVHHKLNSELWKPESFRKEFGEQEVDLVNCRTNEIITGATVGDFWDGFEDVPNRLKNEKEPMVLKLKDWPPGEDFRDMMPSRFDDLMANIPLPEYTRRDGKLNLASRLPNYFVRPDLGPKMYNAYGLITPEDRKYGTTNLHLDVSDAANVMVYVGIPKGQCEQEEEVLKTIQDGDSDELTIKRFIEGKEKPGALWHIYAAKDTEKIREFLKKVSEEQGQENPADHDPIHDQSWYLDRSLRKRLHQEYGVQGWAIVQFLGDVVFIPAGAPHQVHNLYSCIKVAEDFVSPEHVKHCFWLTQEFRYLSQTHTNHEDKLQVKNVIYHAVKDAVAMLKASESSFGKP
Description: Inhibition of KDM3A (unknown origin) after 24 hrs by alphascreen assay.

The target of assay [3] is T1, Lysine-specific demethylase 4A.
The target in assay [4] is T2, Lysine-specific demethylase 3A. Nature of the assay: Inhibition of recombinant human N-terminal FLAG-tagged KDM3A (2 to 1322 residues) expressed in baculovirus infected sf9 cells using biotin-H3K9me as substrate preincubated for 10 mins followed by substrate addition measured after 10 mins by AlphaLisa assay. On the technique in general: Alpha assays give light when donor and acceptor beads are brought close together.

Assay [5] in a line: Antiproliferative activity against human SU-DHL6 cells assessed as reduction in cell viability after 120 hrs by ATPlite assay. In kind it is functional, cell-based. The following applies: SU-DHL-6, 120 h. In general terms: ATP-based viability assays read luminescence as a measure of living cells.

Broadly, the EC50 is the concentration needed to bring the measured effect to its halfway point. The IC50 is the point on the concentration scale where inhibition reaches its midpoint.

Consider `Cc1ccsc1C(NC(=O)c1ccccc1)c1cc(Cl)c2cccnc2c1O` (racemic), for which the EC50 in assay [1] is 9 µM.

In assay [2], `CCCCCCCCOC(=O)c1ccc(O)c2ncccc12` displayed an IC50 greater than 100 µM. This compound came in with an EC50 in assay [3] of 3.8 µM. As to `CCN(CC)CCCCNCc1cc(C=O)ccn1`, the half-maximal inhibitory concentration (IC50) in assay [4] was greater than 2.5 µM. As for `CCN(CCN(C)C)C(=O)CNCc1cc(CNC(=O)C(F)(F)F)ccn1`, the IC50 in assay [4] is greater than 2.5 µM. For the same compound, the EC50 in assay [5] was less than 0.25 µM.

These data come from ChEMBL document CHEMBL3784917, “Recent Progress in Histone Demethylase Inhibitors” (J Med Chem, 2016).
